For the assay, the target named is T1, MAO-B (Rattus norvegicus, UniProt P19643).
T1 construct: from tissue; host or cells: brain, liver and intestine (duodenum) of dosed rats
T1 sequence (P19643 1-520): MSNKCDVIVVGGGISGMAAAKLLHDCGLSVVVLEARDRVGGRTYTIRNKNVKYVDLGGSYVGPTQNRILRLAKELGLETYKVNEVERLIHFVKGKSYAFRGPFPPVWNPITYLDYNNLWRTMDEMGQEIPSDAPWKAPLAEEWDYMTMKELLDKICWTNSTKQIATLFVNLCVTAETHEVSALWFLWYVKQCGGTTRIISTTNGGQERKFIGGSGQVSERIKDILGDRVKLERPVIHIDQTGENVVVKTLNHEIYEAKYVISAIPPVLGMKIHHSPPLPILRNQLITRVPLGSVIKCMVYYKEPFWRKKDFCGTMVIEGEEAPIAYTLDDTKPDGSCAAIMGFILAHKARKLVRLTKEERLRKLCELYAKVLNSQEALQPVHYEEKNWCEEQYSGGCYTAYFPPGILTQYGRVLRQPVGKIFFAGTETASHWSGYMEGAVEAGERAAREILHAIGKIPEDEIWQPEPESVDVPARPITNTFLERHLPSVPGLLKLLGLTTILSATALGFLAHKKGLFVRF
The assay is described as follows: MAO-B inhibition in rat organs after chronic P.O. administration. To be noted: po, 7 days, 2 hours after last dose; for inhibition at 37.5 µmol/kg: 37.5 μmol/kg P.O. daily; for inhibition at 75 µmol/kg: 75 μmol/kg P.O. daily; for inhibition at 150 µmol/kg: 150 μmol/kg P.O. daily. In kind it is in vivo. As to the method: 30 rats were separated randomly into 5 testing groups of 6 rats each. Group 1 was the control group to which no drug was administered. Ethyl-hydroxymethyl-carbamic acid 3-R-(prop-2-ynylamino)-indan-5-yl ester fumarate (2:1) was administered to groups 2, 3, 4 in dosages of 150, 75, and 37.5 μmol/kg respectively, daily, perorally (“P.O.”) for seven consecutive days. Water was used as a vehicle.
Rats were sacrificed, out of sight of the other rats, 2 hours after the last administration. Brains were removed into Petri dishes on ice, the cerebellums were […], and the brains cut into halves for analysis. Livers and intestines were removed for MAO determination. Organs were homogenated for enzyme inhibition analysis.
The MAO inhibition after administration of ethyl-hydroxymethyl-carbamic acid 3-R-(prop-2-ynylamino)-indan-5-yl ester fumarate (2:1) in various organs is listed in Table 4 calculated in percent relative to the control group.

[1] abbreviates: read-out: Brain MAO-B inhibition relative to control.
Setting [2] is: read-out: Duodenum MAO-B inhibition relative to control.
Setting [3] is: read-out: Liver MAO-B inhibition relative to control.

Counter-ions that a name gives are not always drawn. Like-named read-outs stand apart in the source and are kept apart here.

The term inhibition denotes the percentage by which the read-out fell short of the control. Take `C#CCN[C@@H]1CCc2ccc(OC(=O)N(CC)CO)cc21` [R-HCPAI, Ethyl-hydroxymethyl-carbamic acid 3-R-(prop-2-ynylamino)-indan-5-yl ester fumarate (2:1)]: under setting [1], the inhibition at 37.5 µmol/kg stood at 17%, the inhibition at 75 µmol/kg was found to be 62% and the inhibition at 150 µmol/kg is 83%. In addition, under setting [2], the inhibition at 37.5 µmol/kg was found to be 7%, the inhibition at 75 µmol/kg is 31% and the inhibition at 150 µmol/kg stood at 35%. Also, under setting [3], the inhibition at 37.5 µmol/kg was determined as 15%, the inhibition at 75 µmol/kg came to 18% and the inhibition at 150 µmol/kg is 34%.

Source of the values: US8609719B2, “Propargylated aminoindans, processes for preparation, and uses thereof” (priority 2006, dated 2013).
